# Measurements from the METLIN SMRT retention time set (Domingo-Almenara et al. 2019).
# Experiment: gradient 5% acetonitrile 3 min, to 50% in 2 min, to 85% in 15 min, held 3 min, 100 µL/min
# Conditions: column: Zorbax Extend-C18 2.1 x 50 mm; eluents: water / acetonitrile, 0.1% formic acid
# Method in brief: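 Over 3 months, pure standards in mixtures of ~100 molecules were run by HPLC coupled to a quadrupole time-of-flight mass spectrometer in positive and negative ionization mode. The column was a Zorbax Extend-C18 (2.1 × 50 mm, 1.8 μm) at 100 μL/min, eluted with water and acetonitrile each holding 0.1% formic acid, with 40 μL dead and 900 μL dwell volumes. Retention time was determined from adduct peaks chosen by software and checked manually.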
row,SMILES,RP-LC retention time
1,Cc1cccc2nc(-c3ccccc3)c(Nc3ccc4c(c3)OCCO4)n12,679 s
2,CCn1ccc2c(cc(C(=O)Nc3cccc(C(F)(F)F)c3)n2C)c1=O,880 s
3,Cc1cc2nn(CC(=O)Nc3c(C)cccc3C)c(=O)n2c(-c2ccc(F)cc2)n1,826 s
4,O=C(CCn1cnc2c(cnn2-c2ccccc2)c1=O)Nc1ccc2c(c1)OCCO2,754 s
5,Cc1ccc(-c2cc3c(=O)n(Cc4noc(CN5CCN(C(C)C)CC5)n4)ccn3n2)cc1,665 s
6,COc1ccc(NC(=O)N2[C@H]3CC[C@@H]2c2cnc(C)nc2C3)c(C)c1,645 s
7,Cc1cc(C)cc(Nc2c(-c3ccc4c(c3)OCO4)nc3cnccn23)c1,984 s
8,Cc1cc2cc(CN3C(=O)c4ccccc4C3=O)ccc2[nH]1,866 s
9,COc1ccc(-c2nc(Cc3noc(-c4cccc(OC)c4)n3)c(C)o2)cc1,1030 s
10,CCCn1cc(-c2nc(-c3cccnc3)no2)c(=O)c2cc(F)ccc21,770 s
11,CCn1cc(-c2ccc(Cl)cc2)cc1C(=O)NC(C)c1ccccn1 (configuration not stated),843 s
12,CCOCCCNC(=O)CCCn1c2ccccc2c2cnn(C)c(=O)c21,728 s
13,COCCCNC(=O)C1c2cc(OC)c(OC)cc2C(=O)N(C)C1c1cccs1 (configuration not stated),676 s
14,Cc1cc(C(=O)Nc2ccc3c(c2)OCCO3)no1,681 s
15,COc1ccc(CC(=O)Nc2cnn(-c3ncc(N(C)C)cn3)c2)cc1Cl,740 s
16,CCOc1ccccc1-n1ccn(Cc2nc(-c3cccc(OC)c3)no2)c(=O)c1=O,856 s
17,O=C(Cc1c[nH]c2ccccc12)N1CCCN(C2CCN(CC3CC3)C2=O)CC1 (configuration not stated),610 s
18,COc1ccccc1CNC(=O)Cn1cccc1-c1nnc(-c2ccccc2)o1,920 s
19,COc1c(C(=O)NC(C)C)sc2cc(Cl)ccc12,1060 s
20,CC(C)Cc1cc(-c2nnc3sc(-c4ccc(N(C)C)cc4)nn23)n[nH]1,1060 s
21,CCn1nc(CNC(=O)Cc2cccs2)c2ccccc21,766 s
22,Cc1nc(-c2ccc(Cl)cc2)sc1CCNC(=O)c1ccco1,946 s
23,O=C(CSc1ncnc2ccccc12)NCc1ccccc1,708 s
24,CCOc1ccccc1-c1nc(-c2ccc3ncn(C)c3c2)no1,747 s
25,COCc1cc(=O)n(CC(=O)Nc2ccccc2C)c(N)n1,603 s
26,CCCCNC(=O)c1c(C)c2c(=O)n(CC(=O)Nc3ccc(Br)cc3)ncn2c1C,826 s
27,CNS(=O)(=O)c1cc(C(=O)Nc2cc(C)on2)oc1C,643 s
28,CCN(Cc1ccccc1)S(=O)(=O)c1cc(-c2nc(C)cs2)sc1C,1200 s

# More lines, now with the values ahead:
row,RP-LC retention time,SMILES
1,831 s,CC1(C(=O)NCc2ccccc2)CCCN(C(=O)NCc2ccc(F)cc2)C1 (configuration not stated)
2,982 s,COc1cccc(CNC(=O)C2(C)CCCN(C(=O)Nc3cc(Cl)ccc3C)C2)c1 (configuration not stated)
3,634 s,Cc1ccc2c(CN3CCN(c4ccccn4)CC3)cc(=O)oc2c1
4,998 s,COc1ccc(OC)c(S(=O)(=O)N2CCc3nc(-c4ccccc4)ncc3C2)c1
5,601 s,CC(=O)N1c2ccc(S(=O)(=O)N3CCCCC3)cc2CC1C(=O)NCCN(C)C (configuration not stated)
6,731 s,CC(=O)Nc1ccc(C(=O)N2CCC3(CC2)N=C(c2cccc(Br)c2)NO3)cc1
7,681 s,O=C(Cn1nc2c(N3CCCCCC3)nccn2c1=O)NC1CCCCC1
8,806 s,COCCOC(=O)C1=C(C)NC2=C(C(=O)C(C(=O)OC)C(C)C2)C1c1ccccc1F (configuration not stated)
9,671 s,Cc1cn(C)c(CC(=O)NCc2ccco2)c1C(=O)O
10,675 s,O=C(Cc1cccs1)Nc1c(C(=O)N2CCN(c3ccccn3)CC2)oc2ccccc12
11,688 s,COc1ccc(CNC(=O)C2CCCN(c3nnc4cccc(C)n34)C2)c(OC)c1 (configuration not stated)
12,709 s,COC(=O)Cn1c(C2CC(=O)N(c3ccc(OC)cc3)C2)nc2ccccc21 (configuration not stated)
13,586 s,CCOc1ccc(C(=O)NCCCN2CCN(c3ccccc3)CC2)cc1
14,840 s,COC(=O)CNC(=O)N1CCCCCC1c1cccc(C)c1 (configuration not stated)
15,764 s,O=C(CN1C(=O)NC2(CCCCC2)C1=O)Nc1ccccc1Cl
16,881 s,Cc1cnn(Cc2nc(-c3ccc(NC(=O)C4CCCCC4)cc3)oc2C)c1
17,826 s,O=C(C1CCN(c2nc3ccc(-c4ccsc4)nc3s2)CC1)N1CCOCC1
18,820 s,O=C(c1cccc(Cl)c1)N1CCC2(C1)NC(=O)N(Cc1ccc(F)cc1)C2=O (configuration not stated)
19,824 s,Cc1ccc(CN2CCc3nc(N4CCN(c5ccccc5F)CC4)ncc3C2)cc1
20,1080 s,Cc1cccc(N2CCN(c3ccc4cc(S(=O)(=O)N5CCOCC5)ccc4n3)CC2)c1C

row,RP-LC retention time,SMILES
1,693 s,O=C(CC1CCN(C(=O)c2ccc3oc(C4CC4)nc3c2)CC1)NCc1ccco1
2,748 s,COCCOCc1nc(C2CCCN2S(=O)(=O)Cc2ccccc2)no1 (configuration not stated)
3,1090 s,O=C(c1ccc(F)cc1)N1CCCC1c1nc(-c2cccc(C(F)(F)F)c2)no1 (configuration not stated)
4,645 s,CCc1nnc(C2CN(C)CC23CCN(S(=O)(=O)c2cccc(Cl)c2)CC3)o1 (configuration not stated)
5,666 s,CC1CN(Cc2ccccc2)c2nc3c(c(=O)n(CCN4CCOCC4)c(=O)n3C)n2C1 (configuration not stated)
6,703 s,CCCNC(=O)C1CCCN(c2nc3ncn(CC(=O)Nc4ccc(C)cc4C)c(=O)c3s2)C1 (configuration not stated)
7,1180 s,CC(=O)N1CCCSc2ccc(S(=O)(=O)N3CCN(c4cc(Cl)ccc4C)CC3)cc21
8,602 s,CC(=O)N1CCc2ccc(C(=O)N3CCOCC3)cc21
9,854 s,CCOC(=O)c1c(C)[nH]c(CCC(=O)NC(C)c2ccc3c(c2)OCCO3)c1C (configuration not stated)
10,880 s,COc1ccc(NC(=O)C2CCN(S(=O)(=O)c3ccc4c(c3)sc(=O)n4C)CC2)cc1Cl
11,663 s,CS(=O)(=O)N(C1CCOCC1)C1CN(C(=O)c2n[nH]c3ccccc23)C1
12,814 s,CC1=C(c2ccccc2)S(=O)(=O)N=C1N1CCCN(C(=O)C2CCCC2)CC1
13,819 s,O=C(C1CC1)N1CCc2ccc(NS(=O)(=O)/C=C/c3ccccc3)cc21
14,584 s,NC(=O)C1CCN(C(=O)NC2CCCCC2)CC1
15,707 s,COc1ccc(C(=O)N2CCCC2c2nc(-c3ccccc3)n[nH]2)cc1 (configuration not stated)
16,801 s,COc1cc(Cl)ccc1C(=O)N1CCC(COc2ccc(C(=O)NC(C)C)cc2)CC1
17,685 s,NC(=O)C1CCN(C(=O)CCCn2c(=O)c3cccn3c3ccc(Br)cc32)CC1
18,658 s,O=C(Nc1nccs1)C1CCN(C(=O)C2CC(=O)N(c3ccccc3)C2)CC1 (configuration not stated)
19,611 s,Cn1c(=O)c(N2CCC(C(=O)NCCN3CCCCCC3)CC2)nc2cccnc21
